From PubChem BioAssay AID624405 (Broad Institute, 2012)
Inconclusive results are not listed.

system: C2C12 myotubes + simvastatin, ATP luminescence, 48 h; test: rescue of simvastatin-induced ATP loss – cell-based, C2C12 myotubes, ATP luminescence, cherry pick, dose response (AID 624405);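 also: myotubes are challenged with simvastatin at 10 µM to lower ATP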

Row | SMILES | AC40
1 | OC(c1cccc(OCc2ccccc2)c1)c1nnc(-c2ccccc2)o1 (stereo not given) | 5.24 µM
2 | Cc1cccc(-n2c(O)c(C=NC3CCS(=O)(=O)C3)c3ccccc3c2=O)c1 (stereo not given) | 17.6 µM
3 | Cc1cccc(C)c1Nc1nnc(SCc2cc([N+](=O)[O-])cc3c2OCOC3)s1 | 3.85 µM
4 | CCCCn1c(C(C)NC(=O)c2cccs2)nc2ccccc21 (stereo not given) | 3.75 µM
5 | Cc1cc2c3c(c1)C1(SCC(=O)N1c1ccc(F)cc1)C(=O)N3C(C)(C)CC2C (stereo not given) | 4.82 µM
6 | CCCn1c(NC(=O)c2ccco2)nc2ccccc21 | 1.39 µM
7 | COc1cc(CNc2ncnc3c2ncn3[C@H]2CN(Cc3cccc4ccccc34)C[C@@H](CO)O2)cc(OC)c1OC | 1.36 µM
8 | N#C[C@@H]1[C@@H](c2ccc(-c3cccc(F)c3)cc2)[C@H](CO)N1C(=O)NC1CCCC1 | 0.38 µM
9 | COc1ccc(-c2csc(C(C)(O)c3ccccc3)n2)cc1OC (stereo not given) | 13.4 µM
10 | Cc1ccc(S(=O)(=O)Nc2ccc3c(c2)CC(=O)N([C@@H](C)CO)C[C@H](C)[C@@H](CN(C)Cc2ccc(Cl)c(Cl)c2)O3)cc1 | 11.9 µM
11 | O=C(OCc1nc2ccccc2s1)c1cnccn1 | 9.58 µM
12 | CCn1c(-c2ccc(-c3ccccc3)cc2)c[nH]c1=S | 3.72 µM
13 | COc1ccc(N2CCN(C(=O)c3ccc4c(c3)CCN4S(=O)(=O)c3ccccc3)CC2)cc1 | 16.2 µM
14 | C[C@H](CO)N1C[C@H](C)[C@H](CN(C)Cc2ccc3c(c2)OCO3)Oc2ccc(NC(=O)CCCCCC(=O)Nc3ccccc3N)cc2CC1=O | 14.9 µM
15 | C[C@@H]1CN([C@H](C)CO)C(=O)c2cccc(NC(=O)Nc3ccc4c(c3)OCO4)c2O[C@H]1CN(C)Cc1ccc(C(=O)Nc2ccccc2N)cc1 | 0.893 µM
16 | CCOC(=O)N1CCN(C(=O)COc2ccc(S(=O)(=O)NC3CCCCC3)cc2C)CC1 | 14.1 µM
17 | CCOC(=O)Cc1csc(NC(=O)CC(C)(C)C)n1 | 2.56 µM
18 | CC(=O)c1cc(F)c(N2CCCC2)cc1C | 17.4 µM
19 | C[C@H]1CN([C@@H](C)CO)C(=O)Cc2cc(NC(=O)CCCCCC(=O)Nc3ccccc3N)ccc2O[C@H]1CN(C)Cc1ccc(C(F)(F)F)cc1 | 4.15 µM
20 | COc1ccc(CN(C)C[C@H]2Oc3ccc(NS(=O)(=O)c4ccc(Cl)cc4)cc3CC(=O)N([C@@H](C)CO)C[C@@H]2C)cc1 | 0.484 µM
21 | CC(C)C(=O)N(c1ccc2oc(=O)sc2c1)S(=O)(=O)c1ccccc1 | 3.85 µM
22 | CCOC(=O)n1c(=O)n(Cc2c(Cl)cccc2Cl)c2ccccc21 | 7.14 µM
23 | CC1Cc2ccccc2N1C(=O)CSc1nnc(Cc2ccccc2)n1CCc1ccccc1 (stereo not given) | 8.6 µM

Row | SMILES | AC40
24 | CCOc1[nH]n(-c2ccccc2)c(=O)c1C=Nc1ccc(Cl)cc1 | 11.9 µM
25 | C[C@@H]1CN([C@H](C)CO)C(=O)c2cc(NC(=O)Cc3cn(C)c4ccccc34)ccc2O[C@@H]1CN(C)Cc1ccc(C(=O)Nc2ccccc2N)cc1 | 9.69 µM
26 | COc1cc(/C=C(/C(=O)c2cccs2)c2nc3ccccc3[nH]2)cc(OC)c1O | 1.38 µM
27 | CCCCCCn1c(C(C)O)nc2ccccc21 (stereo not given) | 1.94 µM
28 | C[C@H](CO)N1C[C@H](C)[C@H](CN(C)Cc2ccc(C(=O)Nc3ccccc3N)cc2)Oc2ccc(NC(=O)Nc3cccc4ccccc34)cc2CC1=O | 10.5 µM
29 | O=C(Nc1ccc(S(=O)(=O)N2CCCCC2)cc1)C1CCN(C(=O)c2ccco2)CC1 | 5.15 µM
30 | COc1ccc(-n2c(C)cc(C=O)c2C)cc1Cl | 9.14 µM
31 | COc1ccc(C)cc1C(=O)C1CC(C(=O)O)C(C)(C)C1C (stereo not given) | 10.6 µM
32 | CCOC(=O)N1CCN(C(=O)C(c2ccccc2)c2ccccc2)CC1 | 5.75 µM
33 | CCc1ccc(CNCc2cccnc2)cc1 | 17.7 µM
34 | Cc1ccc(C)c(NC(=O)C2CC3c4ccccc4C2c2ccccc23)c1 (stereo not given) | 3.1 µM
35 | CCOc1c(S(=O)(=O)N2CCCC2)ccc(Cl)c1Cl | 5.43 µM
36 | COc1ccc(S(=O)(=O)N(C)C[C@H]2Oc3c(NC(=O)Nc4ccccc4)cccc3C(=O)N([C@H](C)CO)C[C@H]2C)cc1 | 4.87 µM
37 | CCC(C(=O)N(C(C)C)C(C)C)c1ccccc1 (stereo not given) | 18.8 µM
38 | C[C@H]1CN([C@@H](C)CO)C(=O)Cc2cc(NC(=O)Nc3cccc4ccccc34)ccc2O[C@H]1CN(C)Cc1ccc(C(=O)Nc2ccccc2N)cc1 | 2.05 µM
39 | CCOc1ccc2nc(N3CCCC(C(=O)N4CCN(CC)CC4)C3)sc2c1 (stereo not given) | 6.42 µM
40 | COc1ccc(S(=O)(=O)N2CCCCC2)cc1C(C)C | 8.77 µM
41 | C[C@@H]1CN([C@@H](C)CO)C(=O)c2cccc(NC(=O)Nc3ccccc3)c2O[C@@H]1CN(C)S(=O)(=O)c1ccc(F)cc1 | 15.1 µM
42 | Cc1cccn2c(=O)c(C=O)c(N3CCCCCC3)nc12 | 15.1 µM
43 | CC(=O)c1ccc(-c2cc([C@H]3[C@H]4C=CC[C@@H](C)[C@@H]4C(=O)N3Cc3ccccc3)ccc2F)cc1 | 8.76 µM
44 | O=C(CCCSc1nc(-c2ccco2)cc(C(F)(F)F)n1)NCc1cccs1 | 15.1 µM
45 | Cc1noc(C)c1S(=O)(=O)Nc1ccc2c(c1)CC(=O)N([C@H](C)CO)C[C@H](C)[C@@H](CN(C)Cc1ccc(C(F)(F)F)cc1)O2 | 4.59 µM
